Reference: patent US20230114728A1 (Venatorx Pharmaceuticals, Inc., priority 2019, published 2023)

What follows are compounds tested against T1, P. aeruginosa PBP3 (Pseudomonas aeruginosa, UniProt G3XD46) (assay: Bocillin-FL fluorescence polarization competition binding assay, P. aeruginosa PBP3). Conditions: fluorescence polarization competition binding assay using Bocillin-FL.
T1 construct: made in house
How it was run: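 Inhibitor competition with Bocillin-FL for P. aeruginosa PBP3 was followed by fluorescence polarization on a Cytation3 (BioTek) reader, using g-factor 0.96, 490 nm excitation and 520 nm emission. The enzyme was at 0.75 μM and the probe at 0.1 μM in Hepes/NaCl/glycerol buffer, 80 μl per well. FP was recorded immediately after probe addition for up to 60 minutes. Potency was expressed as EC50, the concentration that reduces bound probe by 50%.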

T1 sequence (G3XD46 whole entry): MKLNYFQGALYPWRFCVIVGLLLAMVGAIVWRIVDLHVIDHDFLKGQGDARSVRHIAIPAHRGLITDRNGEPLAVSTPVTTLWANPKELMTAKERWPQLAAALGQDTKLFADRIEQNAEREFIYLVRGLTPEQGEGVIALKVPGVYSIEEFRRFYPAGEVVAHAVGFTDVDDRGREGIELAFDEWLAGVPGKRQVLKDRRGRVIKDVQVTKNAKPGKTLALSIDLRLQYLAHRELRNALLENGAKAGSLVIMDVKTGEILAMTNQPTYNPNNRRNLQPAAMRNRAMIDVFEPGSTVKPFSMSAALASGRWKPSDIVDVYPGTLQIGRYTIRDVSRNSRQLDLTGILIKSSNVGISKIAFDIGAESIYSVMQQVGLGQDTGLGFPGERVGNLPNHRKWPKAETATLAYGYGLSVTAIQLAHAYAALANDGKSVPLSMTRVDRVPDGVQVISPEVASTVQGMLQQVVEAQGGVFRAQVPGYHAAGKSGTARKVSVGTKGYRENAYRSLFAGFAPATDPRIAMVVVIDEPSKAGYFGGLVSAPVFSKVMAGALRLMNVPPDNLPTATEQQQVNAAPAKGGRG

Structure (SMILES)	P. aeruginosa PBP3 Potency
NCCN1CCN(C(=O)N[C@@H](C(=O)N[C@H]2Cc3cccc(C(=O)O)c3OB2O)c2c(F)cc(O)cc2F)C(=O)C1=O (single isomer, unassigned) [Example 111]	D (D represents a potency <10 μM)
NCCN1CCN(C(=O)N[C@@H](C(=O)N[C@H]2Cc3cccc(C(=O)O)c3OB2O)c2cccc(NS(N)(=O)=O)c2)C(=O)C1=O (single isomer, unassigned) [Example 114]	D (D represents a potency <10 μM)
NCCN1CCN(C(=O)N[C@H](C(=O)N[C@H]2Cc3cccc(C(=O)O)c3OB2O)c2cccc(NS(N)(=O)=O)c2)C(=O)C1=O (single isomer, unassigned) [Example 115]	C (C represents a potency between 10 and 30 μM)
NC1(CN2CCN(C(=O)N[C@@H](C(=O)N[C@H]3Cc4cccc(C(=O)O)c4OB3O)c3c(F)cc(O)cc3F)C(=O)C2=O)CC1 (single isomer, unassigned) [Example 121]	D (D represents a potency <10 μM)
NC1(CN2CCN(C(=O)N[C@H](C(=O)N[C@H]3Cc4cccc(C(=O)O)c4OB3O)c3c(F)cc(O)cc3F)C(=O)C2=O)CC1 (single isomer, unassigned) [Example 122]	D (D represents a potency <10 μM)
O=C(O)c1cccc2c1OB(O)[C@@H](NC(=O)[C@H](NC(=O)N1CCN(CCF)C(=O)C1=O)c1c(F)cc(O)cc1F)C2 (single isomer, unassigned) [Example 126]	D (D represents a potency <10 μM)
NCCN1CCN(C(=O)N[C@@H](C(=O)N[C@H]2Cc3ccc(F)c(C(=O)O)c3OB2O)c2c(F)cc(O)cc2F)C(=O)C1=O (single isomer, unassigned) [Example 127]	D (D represents a potency <10 μM)
NCCN1CCN(C(=O)N[C@H](C(=O)N[C@H]2Cc3ccc(F)c(C(=O)O)c3OB2O)c2c(F)cc(O)cc2F)C(=O)C1=O (single isomer, unassigned) [Example 128]	C (C represents a potency between 10 and 30 μM)
CS(=O)(=O)N1CCN(C(=O)N[C@@H](C(=O)N[C@H]2Cc3cccc(C(=O)O)c3OB2O)c2c(F)cc(O)cc2F)C1=O (single isomer, unassigned) [Example 135]	D (D represents a potency <10 μM)
CS(=O)(=O)N1CCN(C(=O)N[C@H](C(=O)N[C@H]2Cc3cccc(C(=O)O)c3OB2O)c2c(F)cc(O)cc2F)C1=O (single isomer, unassigned) [Example 136]	B (B represents a potency between 30 μM and 500 μM inclusive)
CCN1CCN(C(=O)N[C@H](C(=O)N[C@H]2Cc3cccc(C(=O)O)c3OB2O)c2ccc(C(=O)O)cc2O)C(=O)C1=O (single isomer, unassigned) [Example 143]	B (B represents a potency between 30 μM and 500 μM inclusive)
CCN1CCN(C(=O)N[C@@H](C(=O)N[C@H]2Cc3cccc(C(=O)O)c3OB2O)c2ccc(C(=O)O)cc2O)C(=O)C1=O (single isomer, unassigned) [Example 144]	D (D represents a potency <10 μM)
NCCN1CCN(C(=O)N[C@H](C(=O)N[C@H]2Cc3cccc(C(=O)O)c3OB2O)c2cc(F)c(O)c(F)c2)C(=O)C1=O (single isomer, unassigned) [Example 158]	C (C represents a potency between 10 and 30 μM)
NCCN1CCN(C(=O)N[C@H](C(=O)N[C@H]2Cc3cccc(C(=O)O)c3OB2O)c2cc(Cl)c(O)c(Cl)c2)C(=O)C1=O (single isomer, unassigned) [Example 165]	D (D represents a potency <10 μM)
NCCN1CCN(C(=O)N[C@H](C(=O)N[C@H]2Cc3cccc(C(=O)O)c3OB2O)c2cc(F)c(O)c(F)c2F)C(=O)C1=O (single isomer, unassigned) [Example 167]	D (D represents a potency <10 μM)
NCCN1CCN(C(=O)N[C@H](C(=O)N[C@H]2Cc3cccc(C(=O)O)c3OB2O)c2ccc(O)c(F)c2F)C(=O)C1=O (single isomer, unassigned) [Example 169]	C (C represents a potency between 10 and 30 μM)
NCCN1CCN(C(=O)N[C@@H](C(=O)N[C@H]2Cc3cccc(C(=O)O)c3OB2O)c2ccc(O)c(F)c2F)C(=O)C1=O (single isomer, unassigned) [Example 170]	D (D represents a potency <10 μM)
NS(=O)(=O)c1cccc(C(NC(=O)N2CCN(CCF)C(=O)C2=O)C(=O)N[C@H]2Cc3cccc(C(=O)O)c3OB2O)c1 (stereo partly drawn) [Example 100, (3R)-3-(2-(4-(2-fluoroethyl)-2,3-dioxopiperazine-1-carboxamido)-2-(3-sulfamoylphenyl)acetamido)-2-hydroxy-3,4-dihydro-2H-benzo[e][1,2]oxaborinine-8-carboxylic acid]	D (D represents a potency <10 μM)
CCN1CCN(C(=O)NC(C(=O)N[C@H]2Cc3cccc(C(=O)O)c3OB2O)c2cc(Cl)c(O)cc2F)C(=O)C1=O (stereo partly drawn) [Example 101, (3R)-3-(2-(5-chloro-2-fluoro-4-hydroxyphenyl)-2-(4-ethyl-2,3-dioxopiperazine-1-carboxamido)acetamido)-2-hydroxy-3,4-dihydro-2H-benzo[e][1,2]oxaborinine-8-carboxylic acid]	D (D represents a potency <10 μM)
CCN1CCN(C(=O)NC(C(=O)N[C@H]2Cc3cccc(C(=O)O)c3OB2O)c2cc(F)c(O)cc2Cl)C(=O)C1=O (stereo partly drawn) [Example 103, (3R)-3-(2-(2-chloro-5-fluoro-4-hydroxyphenyl)-2-(4-ethyl-2,3-dioxopiperazine-1-carboxamido)acetamido)-2-hydroxy-3,4-dihydro-2H-benzo[e][1,2]oxaborinine-8-carboxylic acid]	D (D represents a potency <10 μM)
CCN1CCN(C(=O)NC(C(=O)N[C@H]2Cc3cccc(C(=O)O)c3OB2O)c2cc(F)c(O)cc2F)C(=O)C1=O (stereo partly drawn) [Example 104, (3R)-3-(2-(2,5-difluoro-4-hydroxyphenyl)-2-(4-ethyl-2,3-dioxopiperazine-1-carboxamido)acetamido)-2-hydroxy-3,4-dihydro-2H-benzo[e][1,2]oxaborinine-8-carboxylic acid]	D (D represents a potency <10 μM)
CCN1CCN(C(=O)NC(C(=O)N[C@H]2Cc3cccc(C(=O)O)c3OB2O)c2c(F)cc(O)cc2F)C(=O)C1=O (stereo partly drawn) [Example 105, (3R)-3-(2-(2,6-difluoro-4-hydroxyphenyl)-2-(4-ethyl-2,3-dioxopiperazine-1-carboxamido)acetamido)-2-hydroxy-3,4-dihydro-2H-benzo[e][1,2]oxaborinine-8-carboxylic acid]	D (D represents a potency <10 μM)
CCN1CCN(C(=O)NC(C(=O)N[C@H]2Cc3cccc(C(=O)O)c3OB2O)c2c(F)c(O)cc(O)c2F)C(=O)C1=O (stereo partly drawn) [Example 106, (3R)-3-(2-(2,6-difluoro-3,5-dihydroxyphenyl)-2-(4-ethyl-2,3-dioxopiperazine-1-carboxamido)acetamido)-2-hydroxy-3,4-dihydro-2H-benzo[e][1,2]oxaborinine-8-carboxylic acid]	D (D represents a potency <10 μM)
CCN1CCN(C(=O)NC(C(=O)N[C@H]2Cc3cccc(C(=O)O)c3OB2O)c2cccc(CNS(N)(=O)=O)c2)C(=O)C1=O (stereo partly drawn) [Example 107, (3R)-3-(2-(4-ethyl-2,3-dioxopiperazine-1-carboxamido)-2-(3-((sulfamoylamino)methyl)phenyl)acetamido)-2-hydroxy-3,4-dihydro-2H-benzo[e][1,2]oxaborinine-8-carboxylic acid]	D (D represents a potency <10 μM)
CCN1CCN(C(=O)NC(C(=O)N[C@H]2Cc3cccc(C(=O)O)c3OB2O)c2cccc(CN)c2)C(=O)C1=O (stereo partly drawn) [Example 108, (3R)-3-(2-(3-(aminomethyl)phenyl)-2-(4-ethyl-2,3-dioxopiperazine-1-carboxamido)acetamido)-2-hydroxy-3,4-dihydro-2H-benzo[e][1,2]oxaborinine-8-carboxylic acid]	B (B represents a potency between 30 μM and 500 μM inclusive)
NCCN1CCN(C(=O)NC(C(=O)N[C@H]2Cc3cccc(C(=O)O)c3OB2O)c2cc(F)c(O)cc2Cl)C(=O)C1=O (stereo partly drawn) [Example 109, (3R)-3-(2-(4-(2-aminoethyl)-2,3-dioxopiperazine-1-carboxamido)-2-(2-chloro-5-fluoro-4-hydroxyphenyl)acetamido)-2-hydroxy-3,4-dihydro-2H-benzo[e][1,2]oxaborinine-8-carboxylic acid]	D (D represents a potency <10 μM)
CCN1CCN(C(=O)NC(C(=O)N[C@H]2Cc3cccc(C(=O)O)c3OB2O)c2cncc(O)c2)C(=O)C1=O (stereo partly drawn) [Example 112, (3R)-3-(2-(4-ethyl-2,3-dioxopiperazine-1-carboxamido)-2-(5-hydroxypyridin-3-yl)acetamido)-2-hydroxy-3,4-dihydro-2H-benzo[e][1,2]oxaborinine-8-carboxylic acid]	D (D represents a potency <10 μM)
NS(=O)(=O)Nc1cccc(C(NC(=O)N2CCN(CCF)C(=O)C2=O)C(=O)N[C@H]2Cc3cccc(C(=O)O)c3OB2O)c1 (stereo partly drawn) [Example 116, (3R)-3-(2-(4-(2-fluoroethyl)-2,3-dioxopiperazine-1-carboxamido)-2-(3-(sulfamoylamino)phenyl)acetamido)-2-hydroxy-3,4-dihydro-2H-benzo[e][1,2]oxaborinine-8-carboxylic acid]	D (D represents a potency <10 μM)
